Data set [1] concerns rats. Kind of data set: Conditioned avoidance response in rats. The data set is classed as in vivo. The note with it: Rattus norvegicus, read-out: ED50, inhibition of conditioned avoidance response.
Data set [2] relates to rats. Kind of data set: Catalepsy induction in rats. The data set is classed as in vivo. The note with it: at the low dose inhibiting conditioned avoidance response.
For a further data set, the target named is T1, 5-HT-2 receptor (Rattus norvegicus, UniProt P14842).
T1 construct: from tissue; host or cells: rat frontal cortex
T1 sequence (P14842 whole entry): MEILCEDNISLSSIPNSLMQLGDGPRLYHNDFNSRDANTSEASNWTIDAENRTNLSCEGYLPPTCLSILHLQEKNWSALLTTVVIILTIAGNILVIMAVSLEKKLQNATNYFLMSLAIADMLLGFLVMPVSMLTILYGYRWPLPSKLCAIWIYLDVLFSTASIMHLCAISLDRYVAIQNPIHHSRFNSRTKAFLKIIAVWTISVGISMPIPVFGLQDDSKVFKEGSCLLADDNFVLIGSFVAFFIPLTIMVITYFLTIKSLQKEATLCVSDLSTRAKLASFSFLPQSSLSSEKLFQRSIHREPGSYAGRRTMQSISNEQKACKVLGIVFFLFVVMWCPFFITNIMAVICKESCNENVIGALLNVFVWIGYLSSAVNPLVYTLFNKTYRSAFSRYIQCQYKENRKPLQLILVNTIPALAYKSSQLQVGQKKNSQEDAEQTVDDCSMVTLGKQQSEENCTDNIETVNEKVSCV
Kind of data set: Displacement of H-spiperone from binding sites in the rat frontal cortex. The text has this:
(§1) In addition, the compound of formula I and of formula II also show good activity in in vitro binding assays involving binding to neural receptors. […] The compounds are also active at the 5-HT-IC receptor.

Another data set deals with T2, 5-HT-IC receptor (Homo sapiens, UniProt P28335).
T2 sequence (P28335 33-458): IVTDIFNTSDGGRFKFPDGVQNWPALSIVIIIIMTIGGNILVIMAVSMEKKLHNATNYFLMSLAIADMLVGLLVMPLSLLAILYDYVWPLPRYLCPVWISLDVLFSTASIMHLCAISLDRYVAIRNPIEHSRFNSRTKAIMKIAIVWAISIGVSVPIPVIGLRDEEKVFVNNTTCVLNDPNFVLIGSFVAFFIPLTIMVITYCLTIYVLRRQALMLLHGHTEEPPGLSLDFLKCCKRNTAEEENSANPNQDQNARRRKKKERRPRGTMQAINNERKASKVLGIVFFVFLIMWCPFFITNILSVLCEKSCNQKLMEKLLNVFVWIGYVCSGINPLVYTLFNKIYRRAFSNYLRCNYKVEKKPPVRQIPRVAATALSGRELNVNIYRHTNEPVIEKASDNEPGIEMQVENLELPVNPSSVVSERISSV
The experiment in a line: Activity at the 5-HT-IC receptor. The data set is classed as binding.
From the text: as §1

In a further data set the target is dopamine D-2 receptor (Homo sapiens, UniProt P14416). The experiment in a line: 3H-spiperone binding assay.
Sequence of dopamine D-2 receptor (P14416 whole entry): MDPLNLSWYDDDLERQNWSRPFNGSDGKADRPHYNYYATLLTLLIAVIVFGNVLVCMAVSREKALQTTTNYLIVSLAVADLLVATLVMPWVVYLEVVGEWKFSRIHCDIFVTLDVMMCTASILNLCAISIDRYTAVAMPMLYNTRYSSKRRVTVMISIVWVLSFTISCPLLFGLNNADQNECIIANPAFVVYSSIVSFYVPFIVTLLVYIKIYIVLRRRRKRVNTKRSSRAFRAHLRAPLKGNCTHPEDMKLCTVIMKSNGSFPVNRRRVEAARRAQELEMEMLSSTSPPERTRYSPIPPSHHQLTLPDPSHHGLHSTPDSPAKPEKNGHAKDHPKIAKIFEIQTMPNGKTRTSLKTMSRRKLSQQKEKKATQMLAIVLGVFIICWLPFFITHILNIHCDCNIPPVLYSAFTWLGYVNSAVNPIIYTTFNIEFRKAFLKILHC
From the text: as §1

The text below walks through data of patent publication US20090221560A1, “Pharmaceutical Formulation” (priority 2005, published 2009).

The structures appear in SMILES notation.

What is called ED50 is the midpoint of the dose-response relation. The term IC50 denotes the concentration that inhibits the measured activity by half. A lower IC50 goes with greater potency in that assay. As to `CC(=O)N1CCN(C2=Nc3ccccc3Nc3sc(C)cc32)CC1` [formula II, 2-methyl-4-(4-acetyl-1-piperazinyl)-10H-thieno-[2,3-b][1,5]-benzodiazepine], the 50% effective dose (ED50) in the data set with rats [1] is approximately 5 mg/kg. Besides, the Catalepsy result with rats [2] is given as “without inducing catalepsy”. The “Concentration displacing H-spiperone at the 5-HT-2 receptor” value at 5-HT-2 receptor was “low nanomolar concentrations”. Further, the “Activity at the 5-HT-IC receptor” value on 5-HT-IC receptor is “active”. The same compound gave an IC50 on dopamine D-2 receptor of less than 1000 nM.
Take `Cc1cc2c(s1)Nc1ccccc1N=C2N1CC[N+](C)(CCl)CC1` [formula I, 2-methyl-4-(4-methyl-4-chloromethyl-1-piperazinyl)-10H-thieno-[2,3-b][1,5]-benzodiazepine]: the median effective dose (ED50) in the data set with rats [1] is approximately 5 mg/kg. In addition, the Catalepsy entry in the data set with rats [2] is given as “without inducing catalepsy”. For the same compound, the “Concentration displacing H-spiperone at the 5-HT-2 receptor” value on 5-HT-2 receptor is recorded as “low nanomolar concentrations”. Further, the “Activity at the 5-HT-IC receptor” value at 5-HT-IC receptor is “active”. On dopamine D-2 receptor, this compound had an IC50 of less than 1000 nM.
